Experimental data: patent US20160303147A1 (priority 2007, published 2016)
Where two headings read alike, the source gives them in different places.

Experiments:
[1] = Clinical safety study in healthy volunteers, single dose cohort 6; assay type: in vivo, human; settings: cohort 6, 600 μg/kg single dose, still blinded
Experimental: (§1) An initial study was conducted to evaluate the safety and pharmacokinetics of
(§2) CMX001 in healthy volunteers. The study consisted of a single dose arm (SD) and a multiple dose arm (MD). In the single dose arm 7 cohorts of 6 subjects were treated (4 subjects received active drug and 2 placebo). Enrollment was staggered as 2 subjects (one active, one placebo) followed by 4 subjects (Groups A and B). The estimated single doses for the two highest doses treated for a […] subject were 40 mg (0.6 mg/kg cohort 6) and 70 mg (1 mg/kg cohort 7). In the multiple dose arm, cohort 6MD received 0.1 mg/kg on Day 0, 6 and 12; Cohort 7MD received 0.2 mg/kg on Day 0, 6 and 12. Levels of cidofovir, CMX001 and CMX064 (major metabolite) were measured in blood and urine of subjects during the course of the study. Gastrointestinal (GI) monitoring of the subjects included (a) monitoring for clinical signs of GI adverse events, (b) monitoring for clinical symptoms using a visual Analog Scale, (c) monitoring for appetite loss/anorexia, nausea, vomiting, diarrhea, constipation and intestinal gas/bloating, (d) laboratory tests for fecal occult blood; serum electrolytes, urine specific gravity, BUN/creatinine ratio; serum albumin, and lipids, and (e) diagnostic studies (the Wireless capsule endoscopy (PillCam®, Given Imaging)).
Plasma concentration curves of CMX001 following a single dose administration are shown in FIG. 1, and plasma concentration curves of cidofovir following a single dose of CMX001 are shown in FIG. 2.

[2] = tested on: lethal Orthopoxivirus infections; assay type: in vivo; settings: mice and rabbits
[3] = Clinical pharmacokinetics in healthy volunteers, single dose of CMX001; assay type: in vivo; settings: Human, analyte = label
Experimental: as §1, §2
Table 3 illustrates the PK comparison of CMX 001 with CMX 021 and CMX 064 for mouse, rabbit and human.

[4] = intravenous infusion, patients; cited from earlier work

Structure (SMILES): CCCCCCCCCCCCCCCCOCCCOP(=O)(O)CO[C@H](CO)Cn1ccc(N)nc1=O [CMX001]
- adverse events [1]: No serious adverse events (SAEs), no significant adverse events (AEs) (i.e. ≧Grade 2), no AEs directly attributable to drug
- changes to clinical laboratory values [1]: No drug associated clinically significant changes to clinical laboratory values, including those indicative of kidney dysfunction
- gastrointestinal capsule endoscopy findings [1]: No post-dose clinically significant gastrointestinal capsule endoscopy findings attributable to drug
- effective dose ([2]; daily for 5 days, low titer inoculums): 1 to 2 mg/kg
- effective dose ([2]; late stage, single dose): 20 to 30 mg/kg
- protection against lethal Orthopoxivirus infections [2]: essentially completely protective

Structure (SMILES): Nc1ccn(C[C@@H](CO)OCP(=O)(O)OCCCOCCCC(=O)O)c(=O)n1 [CMX064]
- AUCO→ ([3]; CMX001 dose 0.050 mg/kg): 38.95 ng·h/mL
- Cmax ([3]; CMX001 dose 0.050 mg/kg): 4.63 ng/mL
- AUCO→ ([3]; CMX001 dose 0.100 mg/kg): 34.02 ng·h/mL
- Cmax ([3]; CMX001 dose 0.100 mg/kg): 2.85 ng/mL
- AUCO→ ([3]; CMX001 dose 0.200 mg/kg): 39.73 ng·h/mL
- Cmax ([3]; CMX001 dose 0.200 mg/kg): 4.55 ng/mL
- AUCO→ ([3]; CMX001 dose 0.400 mg/kg): 202.99 ng·h/mL
- Cmax ([3]; CMX001 dose 0.400 mg/kg): 23.03 ng/mL
- AUCO→ ([3]; CMX001 dose 0.600 mg/kg): 187.0 ng·h/mL
- Cmax ([3]; CMX001 dose 0.600 mg/kg): 24.86 ng/mL

Structure (SMILES): Nc1ccn(C[C@@H](CO)OCP(=O)(O)O)c(=O)n1 [Cidofovir]
- nephrotoxicity [4]: dose-limited by its nephrotoxicity
